Assay results: patent US8329643B2, “PIMAP39 modulates LPS-induced inflammatory response” (Trustees of Boston University, priority 2008, dated 2012)

How the values were obtained:
[1] = test system: LPS-induced TNF-α production; assay: Effects of inhibitors on LPS-induced TNF-α production in THP-1 cells (ELISA); assay type: cell-based, human; conditions: for LPS-induced TNF-α expression compared to LPS alone / TNF-α levels within 8-10 hrs post treatment: THP-1 cells; for LPS-induced TNF-α expression compared to LPS alone: 0.1 μg/ml E. coli LPS, 10 μM sodium orthovanadate, 20 μM AG490, U0126 or SB203580, ELISA 2-16 hours; for TNF-α levels within 8-10 hrs post treatment: LPS + inhibitor, ELISA
Experimental: THP-1 cells were differentiated with 100 nM phorbol-12-myristate-13-acetate (PMA) and seeded (1×10^5) in 6-well plates overnight. After washing by PBS, cells were stimulated with 0.1 mg/ml E. coli LPS for 3 hrs. The cells were washed with PBS again and treated with various inhibitors. 10 μM Sodium orthovandate, 20μM AG490, 20μM U0126, 20μM SB203580 or untreated as control. 200μl of supernatant was collected for ELISA assay (A) from each treatment at 2, 4, 6, 8, 12, 14 and 16 hours and its corresponding mRNA was prepared for RT-PCR (B) by first extracting total RNA from the treated cells using QIAQuick™ RNA miniprep (Qiagen). 1μg of each RNA was used to generate cDNA with Platinum® Quantitative RT-PCR ThermoScript™ One-Step System kit (Invitrogen). 10 ng pf cDNA from each test was PCRed using PTP4A3 forward primer 5′-[…]-3′ [SEQ ID NO: 2] and reverse primer 5′-[…]-3′ [SEQ ID NO: 3]. Another 1 ng of cDNA was PCRed using GAPDH primer pairs (Invitrogen) as control. Densitometric analysis (C) of RT-PCR (B) with intensity values normalized to GAPDH and using 0 hour value as reference intensity.
AG490, U0126 and SB203580 were purchased from EMD Biosciences (San Diego, Calif.). Sodium orthovanadate was purchased from Sigma-Aldrich (Saint Louis, Mo.). Human THP-1 cells were treated with 10 μM Sodium orthovanadate (PTP4A3 inhibitor [Greenwel, P, et al., (1995) Tyrosine dephosphorylation of nuclear proteins mimics transforming growth factor beta 1 stimulation of alpha 2(1) collagen gene expression. Mol Cell Biol 15:6813-6819], 20 μM AG490 (JAK inhibitor [Saudemont, A, et al., (2007) Dormant tumor cells develop cross-resistance to apoptosis induced by CTLs or imatinib mesylate via methylation of suppressor of cytokine signaling 1. Cancer Res 67:4491-4498], 20 μM U0126 (ERK inhibitor [Yang, L, et al., (2007) Inhibition of epidermal growth factor receptor signaling elevates 15-hydroxyprostaglandin dehydrogenase in non-small-cell lung cancer. Cancer Res 67:5587-5593], 20 μM SB203580 (p38 MAPK inhibitor [Hsieh, Y H, et al., (2007) p38 mitogen-activated protein kinase pathway is involved in protein kinase Calpha-regulated invasion in human hepatocellular carcinoma cells. Cancer Res 67:4320-4327].
For primary mouse macrophages or THP-1, cells were seeded (2×10^4 cells in 96-well plate or 2×10^6 cells in six-well plate) and were stimulated with […] of E. coli LPS (Sigma) and/or transiently transfected with […] of DNA using Lipofectamine™ Reagent and/or introduced with 500 ng/ml peptide using Chariot™ kit (ActiveMotif; Carlsbad, Calif.) prior to LPS treatment, then incubated at 37° C., 5% CO2 overnight. Culture supernatants were harvested and centrifuged at 1,500×g to remove cell debris. Concentrations of mouse or human TNF-α in the supernatant of each well of treated and untreated control cells were measured by ELISA (Abraxis, Warminster, Pa.). ELISA immunoreactivity was quantified by using a microplate reader (Bio-Rad, Hercules, Calif.) and graphed.
To investigate a link between PTP4A3 and the LPS signaling cascade, HP-1 cells were co-treated with 0.1 μg/ml E. coli LPS and/or various inhibitors, sodium orthovanadate (PTP4A3 inhibitor), AG490 (JAK inhibitor), U0126 (ERK inhibitor), SB203580 (p38 MAPK inhibitor) or untreated as control. The supernatants from cell culture at each time point (2, 4, 6, 8, 10, 12, 14 and 16 hours post stimulation) were collected and the potential role of these inhibitors on TNF-α production was measured by ELISA (Abraxis; […].). In parallel mRNA from each experimental group was prepared and quantified by RT-PCR.

PTP4A3 gene expression = assay: PTP4A3 expression by RT-PCR in LPS plus inhibitor treated THP-1 cells; assay type: cell-based, human; conditions: time course
Experimental: THP-1 cells were differentiated with 100 nM phorbol-12-myristate-13-acetate (PMA) and seeded (1×10^5) in 6-well plates overnight. After washing by PBS, cells were stimulated with 0.1 mg/ml E. coli LPS for 3 hrs. The cells were washed with PBS again and treated with various inhibitors. 10 μM Sodium orthovandate, 20μM AG490, 20μM U0126, 20μM SB203580 or untreated as control. 200μl of supernatant was collected for ELISA assay (A) from each treatment at 2, 4, 6, 8, 12, 14 and 16 hours and its corresponding mRNA was prepared for RT-PCR (B) by first extracting total RNA from the treated cells using QIAQuick™ RNA miniprep (Qiagen). 1μg of each RNA was used to generate cDNA with Platinum® Quantitative RT-PCR ThermoScript™ One-Step System kit (Invitrogen). 10 ng pf cDNA from each test was PCRed using PTP4A3 forward primer 5′-ATGGCTCGGATGAACCGC-3′ [SEQ ID NO: 2] and reverse primer 5′-CTACATAACGCAGCACCG-3′ [SEQ ID NO: 3]. Another 1 ng of cDNA was PCRed using GAPDH primer pairs (Invitrogen) as control. Densitometric analysis (C) of RT-PCR (B) with intensity values normalized to GAPDH and using 0 hour value as reference intensity.
The PCR or RT-PCR was performed following manufacturer's instructions.

[2] = test system: LPS-induced TNF-α expression; conditions: monocyte cells, 'current studies'; cited from earlier work
[3] = test system: p38α/LITAF signaling pathway; assay: Western blot of p38α/LITAF signaling pathway in LPS-treated THP-1 cells after PTP4A3 overexpression or RNAi; assay type: cell-based, human
Experimental: THP-1 cells (1×10^5) were stimulated with 0.1 μg/ml E. coli LPS for 3 hours. The cells were washed and transiently transfected with DNAs above using Lipofectamine™ reagent (Invetrogen). Treated cells were then incubated overnight. The supernatants from each culture were measured by ELISA. Elisa immunoreactivity was quantified using a microplate reader (Bio-Rad) and graphed (A). […] THP-1 cells (B) or mouse macrophage cells (C) were stimulated with 0.1 μg/ml E. coli LPS alone for 3 hours and then transfected with 1 μg/ml pcHAPTP DNA (B & C, lane 3) or 1 μg/ml pcDNA (B & C, lane 2) and untreated (B & C, lane 1) as controls by Lipofectamine reagent. Treated cells were incubated overnight and lysed. […]
THP-1 cells (5×10^6) matured by treatment with 200 nM phorbol 12-myristate 13-acetate (Sigma) were treated or untreated with 0.1 μg/ml LPS (Sigma) for 3 h and washed with PBS. […] The protein lysate from the treated or untreated cells were analyzed by Western blotting. […]
LITAF remains inactivated in the absence of p38 MAP kinase (p38α) and the inhibition of p38α down-regulates cytokines such as TNF-α [Tang, X, et al., (2006) LPS-induced TNF-alpha factor (LITAF)-deficient mice express reduced LPS-induced cytokine: Evidence for LITAF-dependent LPS signaling pathways. […] The lysate protein from each treated cell culture was detected by Western blot analysis. […]

| Molecule | LPS-induced TNF-α expression compared to LPS alone [1] | PTP4A3 expression (RT-PCR) (PTP4A3 gene expression) | LPS-induced TNF-α expression at protein and mRNA levels [2] | also measured |
| --- | --- | --- | --- | --- |
| N#CC(=C(/N)Sc1ccccc1N)/C(C#N)=C(\N)Sc1ccccc1N [U0126] | did not result in a significant decrease | at a maximum between 8-10 hrs |  | TNF-α levels within 8-10 hrs post treatment [1]: did not increase at all |
| C[S+]([O-])c1ccc(-c2nc(-c3ccncc3)c(-c3ccc(F)cc3)[nH]2)cc1 (centres unmarked) [SB203580] | significant decrease | at a maximum between 8-10 hrs |  |  |
| O=c1c(-c2ccc(O)cc2)coc2cc(O)cc(O)c12 [genistein] |  |  | markedly attenuated |  |
| GUACGAGGACGCCAUCCAGUU & AACUGGAUGGCGUCCUCGUAC (listed as RNA, chemistry not given here) [RNAi, small interfering RNA (siRNA) specific for PTP4A3] |  |  |  | p38α phosphorylation in response to LPS ([3]; FIG. 4D, 100 nM siRNA or 0.5 mg pcHAPTP): significantly increased; ability of overexpressed PTP4A3 to dephosphorylate p38 ([3]; pcHAPTP plus RNAi, FIG. 4D lane 5): suppressed |
| CO[C@H]1[C@@H](OC)C[C@H](C)[C@@H](OC)C2=CC(=O)C=C(NC(=O)/C(C)=C/C=C\[C@H](OC)[C@@H](OC(N)=O)/C(C)=C/[C@@H]1C)C2=O [Herbimycin-A] |  |  | markedly attenuated |  |
| N#C/C(=C/c1ccc(O)c(O)c1)C(=O)NCc1ccccc1 [AG490] | did not result in a significant decrease | at a maximum between 8-10 hrs |  | TNF-α levels within 8-10 hrs post treatment [1]: did not increase at all |
| [Na+].[Na+].[Na+].[O]=[V]([O-])([O-])[O-] [sodium orthovanadate, Sodium orthovanadate] | did not result in a significant decrease | No such maximum occurred | further enhanced | LPS-induced expression of TNF-α on co-treatment ([1]; LPS and orthovanadate, FIG. 1, 8-16 hrs): augmented; concentration of secreted TNF-α higher than LPS only treated cells ([1]; on average, at the 8 hr mark and beyond, LPS + 10 μM sodium orthovanadate): 20% |
